“Also recorded” adds a separate entry of the source.
Experiments:
Nurr1/RXR heterodimer = target: T1, Nurr1/RXR heterodimer (Homo sapiens, UniProt P19793); test: receptor transactivation assay Nurr1/RXR; type: cell-based; conditions: COS7 cells
T1 construct: full length Nurr-1 with or without full-length RXRα plasmid; expressed in transfected cells; host or cells: COS7
Excerpt: For PPARγ: CV-1 cells were transfected with 3×(rAOX/DR1)-tk-Luc reporter gene and an expression vector for PPARγ. For FXR:CV-1 cells were transfected with 3×(IBABP/IRI)-tk-Luc reporter gene and vectors for FXR and RXRα. For LXR:CV-1 cells were transfected with 3×(PLTP/LXRE)-tk-Luc reporter gene with vectors for LXRα or LXRβ. For Nurr1: COS7 cells were transfected with 3×NBRE-tk-luc reporter gene and full length Nurr-1 with or without full-length RXRα plasmid. […] Luciferase data were normalized to co-transfected β-gal activity. Luciferase activity was expressed as percent of maximal activity obtained using specific agonists. Rosiglitazone (PPARγ), GW4064 (FXR), T0901317 (LXR).

[1] = tested on: rat 6-OHDA induced Parkinson Disease (PD) model; test: rat 6-OHDA induced Parkinson Disease model, paw placement (cylinder test); type: in vivo; conditions: day 24; IRX4204 10 mg/kg PO, T3 1.5 μg/kg and T4 9 μg/kg SC
Procedure: The paw placement (cylinder test) was used for assessment of the damage. This test assessed a rat's independent forelimb use to support the body against the walls of a cylindrical enclosure. The test took advantage of the animals' innate drive to explore a novel environment by standing on the hind limbs and leaning towards the enclosing walls.
To perform this test, rats were placed individually in a glass cylinder (21 cm diameter, 34 cm height) and wall exploration was recorded for 3 minutes. No habituation to the cylinder prior to recording was allowed.
The statistical analysis was performed as ratio between the intact and impaired legs (R/L ratio). The ratio was expressed as the values of intact right+both forelimbs divided by the values of impaired left +both forelimbs. A lower value of the ratio means greater healing of the 6-OHDA induced brain damage.
Once a week during three weeks (study days 10, 17 and 24), the animals were re-tested for their performance in the paw placement test.

SJL mice with EAE = test: EAE in SJL mice, PLP peptide; type: in vivo, mouse
Procedure: To determine whether a RXR agonist can attenuate multiple sclerosis, SJL mice were immunized to induce EAE by s.c. injection at the base of their spine with 200 μL of adjuvant containing 200 μg proteolipid proteins (139-151) (PLP peptide; Peptides International, Louisville, Ky.) and 400 μg of non-viable M. tuberculosis H37 desiccate emulsified in a mixture of incomplete Freund's adjuvant and PBS. Mice were also given 150 ng of pertussis toxin in PBS i.p. on the same day as PLP emulsion injection and 2 days later. […] Mice were scored using the scale described in Example 3.

[2] = tested on: C57BL/6 (B6) mice with experimental autoimmune encephalomyelitis (EAE); test: EAE in C57BL/6 (B6) mice, MOG peptide; type: in vivo, mouse; conditions: IRX4204 50 μg every other day from day 7 to day 20
Procedure: Mice were also given 200 ng of pertussis toxin in PBS administered by inter-peritoneal (i.p.) injection on the same day as MOG emulsion injection (day 0) and 2 days later (day 2). […] Mice were scored using the following scale: 0—Mice have no disease, 1—Mice have distal limp tail or rear leg weakness (paresis), 1.5—Mice have distal limp tail and rear leg weakness, 2—Mice have complete limp tail and rear leg weakness, 2.5—Mice have complete limp tail and weakness in both rear legs, 3—Mice have complete limp tail and paralysis in both rear legs, 3.5—Mice have complete limp tail, paralysis in both rear legs, and forelimb weakness. Mice receiving a score of 3.5 were immediately euthanized.

[3] = tested on: C57BL/6J mice with cuprizone+rapamycin demyelination; test: 12-week cuprizone/rapamycin demyelination model, 6 weeks of treatment; type: in vivo, mouse; conditions: 6 weeks of treatment after 12 weeks CR
Excerpt: All animals were sacrificed after 12 weeks of CR or after further 6 weeks of treatment to evaluate myelin in white matter (corpus callosum) and gray matter (hippocampus and cortex). In addition, the size of myelinated axons was quantified and the large myelinated axons were further assessed by 3D-electron microscopy (3D-EM). A total of 40 animals were included in the study, where all 40 animals received CR demyelination for 12 weeks. After demyelination, a subset (n=10) of animals are sacrificed to serve as controls to assess baseline demyelination. […] Floating brain sections are immunostained with myelin prolipid protein (PLP) to visualize and quantify myelin in gray matter, hippocampus (FIG. 16A) and cortex (FIG. 16B).

RXRγ = RXRγ (Homo sapiens, UniProt P48443)
Sequence of RXRγ (P48443 whole entry, the tested form may be a part): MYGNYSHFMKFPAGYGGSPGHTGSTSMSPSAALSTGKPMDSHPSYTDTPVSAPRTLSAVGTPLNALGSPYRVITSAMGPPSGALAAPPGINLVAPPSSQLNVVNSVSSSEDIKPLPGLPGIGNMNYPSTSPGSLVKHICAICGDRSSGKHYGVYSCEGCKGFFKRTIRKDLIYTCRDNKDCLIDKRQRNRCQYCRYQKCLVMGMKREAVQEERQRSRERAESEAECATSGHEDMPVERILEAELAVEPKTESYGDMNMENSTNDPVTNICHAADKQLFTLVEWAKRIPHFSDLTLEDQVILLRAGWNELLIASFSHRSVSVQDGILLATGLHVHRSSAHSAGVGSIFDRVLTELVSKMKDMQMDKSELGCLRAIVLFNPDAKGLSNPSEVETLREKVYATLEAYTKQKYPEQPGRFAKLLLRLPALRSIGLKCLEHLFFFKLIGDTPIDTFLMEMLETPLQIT
Procedure: (§1) To determine whether a RXR agonist can mediate its effects via RXRα receptor homodimers, RXRβ receptor homodimers, RXRγ receptor homodimers, or any combination thereof, or the corresponding RAR/RXR heterodimers, receptor-mediated transactivation assays were performed. For transactivation assays assessing RXR homodimer signaling, CV-1 cells were transfected with 1) an expression construct including a full length RXRα, RXRβ, or RXRγ; and 2) a rCRBPII/RXRE-tk-Luc reporter construct that included RXR homodimer-specific RXRE/DR1 responsive element linked to a luciferase gene. For transactivation assays assessing RAR/RXR heterodimer signaling, CV-1 cells were transfected with 1) an expression construct comprising a fusion protein including an estrogen receptor (ER) DNA binding domain linked to the ligand binding domain of RARα, RARβ, or RARγ and 2) a ERE-tk-Luc reporter construct that included an estrogen receptor responsive element linked to a luciferase gene. […] Data are mean values±SE from five independent experiments.

RXRα = target: T2, RXRα (Homo sapiens, UniProt P19793)
T2 sequence (P19793 1-462): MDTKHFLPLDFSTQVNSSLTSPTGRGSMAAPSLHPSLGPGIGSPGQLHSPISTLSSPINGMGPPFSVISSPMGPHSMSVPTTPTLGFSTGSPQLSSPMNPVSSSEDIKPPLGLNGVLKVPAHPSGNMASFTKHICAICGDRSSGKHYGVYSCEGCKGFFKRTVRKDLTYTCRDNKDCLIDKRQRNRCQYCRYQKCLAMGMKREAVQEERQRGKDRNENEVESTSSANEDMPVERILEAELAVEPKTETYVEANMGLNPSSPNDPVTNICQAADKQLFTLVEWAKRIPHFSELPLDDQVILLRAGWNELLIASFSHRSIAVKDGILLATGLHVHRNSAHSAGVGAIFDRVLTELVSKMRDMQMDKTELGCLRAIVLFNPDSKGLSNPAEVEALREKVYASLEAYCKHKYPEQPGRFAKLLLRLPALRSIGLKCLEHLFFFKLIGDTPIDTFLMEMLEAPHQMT
Procedure: as §1

[4] = tested on: mouse oligodendrocyte progenitor cells (OPCs); test: mouse OPC differentiation with IRX4204 and T3; type: cell-based; conditions: 5-day treatment; IRX4204 10, 1, 0.1 nM
Procedure: OPCs were derived from plp-EGFP expressing mice.
Therapeutic agents were tested in 96-well plates (6 wells per concentration). […] All media contained 0.1% DMSO. At the end of the 5-day treatment, cells were imaged on Cellomics in two channels and algorithms were used to count nuclei and EGFP+oligodendrocytes.

[5] = tested on: C57BL/6 (B6) mice with EAE; test: CNS infiltrating cells in EAE B6 mice; type: in vivo, mouse; conditions: day 20 after immunization
Procedure: To determine whether a RXR agonist can reduce central nervous system (CNS) infiltrating cells, C57BL/6 (B6) mice were treated as described in Example 6. On day 20 after immunization, mice were sacrificed and perfused with phosphate buffered saline (PBS). Brain and spinal cord tissue was isolated, digested with DNase and LIBERASE DL® (Roche Diagnostics, Indianapolis, Ind.) for 30 minutes, and homogenized through 70 micron nylon mesh filters. Resulting cells were placed over a Percoll gradient to remove myelin. The remaining cells (microglia and CNS infiltrating cells) were counted, stained for molecules of interest, and run on a flow cytometer. Based on the frequencies obtained by FACS of these cell populations, total cell numbers of CNS infiltrating leukocytes expressing CD45, including CD4^+ T cells and CD11c^+ CD11b^+ myeloid dendritic cells (DC), were calculated.

[6] = tested on: early Parkinson's Disease subjects; test: open-label clinical study in early Parkinson's Disease subjects; type: in vivo, human; conditions: for Change in TSH / Total Motor Change / Total UPDRS Change: 15 days
Procedure: An open-label, single site clinical study of early Parkinson's Disease subjects treated with IRX4204 was conducted to determine whether the preclinical promise of IRX4204 as a disease modifying agent for PD will translate to the clinical setting upon treatment of early PD patients with IRX4204 as determined by Unified Parkinson's Disease Rating Scale (UPDRS) measurements and safety assessments. The changes in UPDRS scores were correlated with circulating thyroxine levels.
Five subjects were recruited for each of the three dose levels. All fifteen subjects completed 15 days of dosing.
All subjects ([…]) completed 15 days of dosing and returned to the clinic at the end of 2 weeks (day 15-17) for UPDRS score determination and safety assessments including determination of plasma thyroxine (T4) levels. Percent changes in Total Motor scores, Total UPDRS scores and plasma T4 values were determined according to the following: […]

[7] = tested on: oligodendrocyte precursor cells (OPCs); test: oligodendrocyte precursor cell differentiation (PLP-EGFP); type: cell-based, mouse
Excerpt: OPCs were generated from a neurosphere culture of E14.5 PLP-EGFP (on C57BL/6J background) mouse brains. […] The EGFP expressing cells were quantified with Cellomics Neuronal Profiling Algorithm.
The EGFP expressing cells in controls and all compounds were quantified with Cellomics Neuronal Profiling Algorithm.

[8] = tested on: one year old rats, caudal cerebellar peduncle lesions; test: focal ethidium bromide induced rat model of demyelination; type: in vivo; conditions: IRX4204 10 mg/kg/day oral, thyroxine 20 ng/g s.c., 14 days
Procedure: The experiment uses rats of relatively advanced age (1 year) since such rats undergo remyelination in a less efficient manner, thereby providing data that are more relevant to the clinical treatment of human patients with multiple sclerosis or other demyelination disorders.
Focal demyelination is induced in one year old rats (approximately 300 g in weight) by injecting stereotactically 5 μl of ethidium bromide solution (0.01% vol/vol in saline) in a bilateral manner into the caudal cerebellar peduncles (CCP). […] The rats are killed on day 24 post-ethidium bromide treatment for analysis of remyelination by quantitative polymerase chain reaction (qPCR) and microscopy.

B6 mice with EAE = test: EAE dose titration in B6 mice with spleen and CNS analysis; type: in vivo, mouse
Procedure: A dose titration experiment was also conducted in EAE mice. EAE was induced in 28 B6 mice with MOG/CFA and PT as above. Mice were scored on day 7 as indicated above and divided into groups by score so means are as equal as possible.
At the completion of the experiment, the vehicle control and 200 μg/day groups were euthanized and spleen and CNS samples obtained.

[9] = tested on: C57BL/6J mice with cuprizone+rapamycin demyelination; type: in vivo
[10] = 50 μg i.p. every other day from day 7, n=6
[11] = 200 μg/day, restimulation with PMA/Ionomycin

T1 sequence (P43354 whole entry partner, one chain of several): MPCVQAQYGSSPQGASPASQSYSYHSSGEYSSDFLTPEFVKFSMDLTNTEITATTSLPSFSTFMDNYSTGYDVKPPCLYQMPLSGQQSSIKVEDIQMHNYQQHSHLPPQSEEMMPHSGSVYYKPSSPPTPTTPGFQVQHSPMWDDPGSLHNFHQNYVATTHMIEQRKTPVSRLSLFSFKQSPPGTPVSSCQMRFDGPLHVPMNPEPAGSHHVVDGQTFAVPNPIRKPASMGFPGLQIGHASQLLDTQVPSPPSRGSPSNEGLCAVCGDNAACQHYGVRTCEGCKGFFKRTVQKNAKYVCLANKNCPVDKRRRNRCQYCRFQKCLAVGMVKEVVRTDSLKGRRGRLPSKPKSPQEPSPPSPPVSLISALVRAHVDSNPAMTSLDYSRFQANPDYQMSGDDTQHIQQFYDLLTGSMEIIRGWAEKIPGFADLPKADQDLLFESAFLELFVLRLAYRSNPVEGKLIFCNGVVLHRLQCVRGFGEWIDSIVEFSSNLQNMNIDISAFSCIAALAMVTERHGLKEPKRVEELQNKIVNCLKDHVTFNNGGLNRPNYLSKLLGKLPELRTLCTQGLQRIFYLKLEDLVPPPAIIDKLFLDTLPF

CC(/C=C/[C@@H]1C[C@]1(C)c1ccc2c(c1)C(C)(C)CCC2(C)C)=C\C(=O)O [IRX4204, 3,7-dimethyl-6(S),7(S)-methano,7-[1,1,4,4-tetramethyl-1,2,3,4-tetrahydronaphth-7-yl]2(E),4(E) heptadienoic acid]
activation of Nurr1/RXR permissive heterodimer (Nurr1/RXR heterodimer): selectively activates
mean body weight [1]: 157.17±2.93%
Mean Maximum Score (SJL mice with EAE; 50 μg i.p. every other day from day 7): 1.5 ± 1.4
Death from Disease (SJL mice with EAE; [10]): 0/6
Disease Incidence (SJL mice with EAE; [10]): 4/6
symptoms of EAE (scores of disease severity) (SJL mice with EAE; 50 μg i.p. every other day, to day 14): significantly reduces the symptoms of EAE
symptoms of EAE (scores of disease severity over time) [2]: significantly reduces the symptoms of EAE
size of myelinated axons in the corpus callosum [3]: significantly increases; also recorded: shift in distribution to larger axon diameter
Efficacy (% of 1 μM IRX4204) RXRγ (RXRγ): 100 % of 1 μM IRX4204
Efficacy (% of 1 μM IRX4204) RXRα (RXRα; CV-1 cells): 100 % of 1 μM IRX4204
more potent in activating RXR receptors rather than RAR receptors (RXRα; RXR versus RAR receptors): > 1,000 fold
oligodendrocyte production (EGFP+ oligodendrocytes) [4]: clear dose-responses
infiltration of CD4+ cells in to the CNS [5]: significant reduction
infiltration of CD11c+ CD11b+ cells (myeloid DC) in to the CNS [5]: significant reduction
Change in TSH ([6]; 5 mg/day): −28.9%
Total Motor Change ([6]; 5 mg/day): −31.4%
Total UPDRS Change ([6]; 5 mg/day): −18.7%
Change in TSH ([6]; 10 mg/day): −36.6%
Total UPDRS Change ([6]; 10 mg/day): −13.6%
reduction in Total UPDRS scores ([6]; 20 mg/day): 6.6%
reduction of plasma T4 ([6]; 20 mg/day): 98.8%
Change in TSH ([6]; 20 mg/day): −98.8%
Total Motor Change ([6]; 20 mg/day): −14.5%
OPC differentiation into oligodendrocytes (EGFP positive cells compared to DMSO) ([7]; all concentrations except the lowest (1^−6 μM)): significant increase; also recorded: dose dependent increase
total cell number and pyknotic cells ([7]; compared to controls): did not show any differences
Mbp expression (real-time qPCR of lesion samples) [8]: increase
Nkx2.2+ oligodendrocyte precursor cells (OPCs) in lesions [8]: increased
Pdgfra expression (real-time qPCR of lesion samples) [8]: increase
density of CC1+ differentiated oligodendrocytes in lesions [8]: increased
density of Olig2+ oligodendrocyte lineage cells in lesions [8]: increased
remyelinated axons (ultrastructural analyses of CCP lesions) [8]: more remyelinated axons than vehicle treatment
disease overall (EAE score) (B6 mice with EAE; 50 μg, 100 μg or 200 μg every day from day 8): significantly less disease overall
CCR6 expression on CD4 T cells, spleen (B6 mice with EAE; 200 μg/day): lowered
CD4+ CD25hi cells (number), spleen (B6 mice with EAE; 200 μg/day): reduced
co-expression of IFNg and IL-17A by CD4 T cells in CNS (B6 mice with EAE; 200 μg/day): not significantly different between groups
frequency of CD4+ CD25hi cells, spleen (B6 mice with EAE; 200 μg/day): not altered
total number of effector and memory CD4 T cells (CD44), spleen (B6 mice with EAE; 200 μg/day): decreased
total number of infiltrating CD4 T cells in the CNS (B6 mice with EAE; 200 μg/day): reduced
total number of recently activated CD4 T cells (CD69 and CD44), spleen (B6 mice with EAE; 200 μg/day): decreased
IFNγ, CNS infiltrating lymphocytes (B6 mice with EAE; [11]): significantly reduced
TNF, CNS infiltrating lymphocytes (B6 mice with EAE; [11]): significantly reduced
terminal body weights ([9]; ANOVA, IRX4204 or vehicle groups): no significant difference
number of SMI32 positive axonal ovoids in corpus callosum ([9]; IRX4204 10 mg/kg PO, T4 20 ng/g SQ, daily 6 weeks, versus Vehicle, 10 mg/kg): trend towards decreased number of axonal ovoids but was not statistically different from the Vehicle; also recorded: trend towards decrease in axonal ovoids, but it was statistically not different from vehicle
microglial/macrophage activation (Iba1 staining) in corpus callosum ([9]; daily 6 weeks, versus vehicle): no difference
decrease in T4 levels compared to vehicle control animals ([9]; terminal blood draw): ~50%

N[C@@H](Cc1cc(I)c(Oc2ccc(O)c(I)c2)c(I)c1)C(=O)O [T3, triiodothyronine, reference compound]
oligodendrocyte production (EGFP+ oligodendrocytes) [4]: clear dose-responses
